In patent publication US20250213558A1, “T-TYPE CALCIUM CHANNEL MODULATORS COMPRISING A PIPERAZINE OR 1,4-DIAZEPANE CORE AND METHODS OF USE THEREOF” (Praxis Precision Medicines, Inc., priority 2022, published 2025):
Like-named read-outs stand apart in the source and are kept apart here.

Target: T1, Human Cav3.1 calcium channel (Homo sapiens, UniProt O43497)
T1 construct: expressed in transfected cells; host or cells: HEK-293 natClytin/TASK1+Cav3.1 cell line
Assay: Human Cav3.1 calcium channel patch clamp assay (SyncroPatch 384PE; single point and IC50, voltage dependent block)
Assay type: cell-based
Conditions: for % Inhibition (Single Point Data): patch clamp
Method: Certain compounds (as indicated) were tested for Human Cav3.1 calcium channel activity via a patch clamp assay as disclosed herein.
Pulse generation and data collection were performed with PatchController384 V1.3.0 and DataController384 V1.2.1 (Nanion Technologies). Offline analysis was performed using Excel and Graphpad Prism (V 8.4.2) with complete data files uploaded to Dotmatics. The access resistance and apparent membrane capacitance were estimated using built-in protocols. Current was recorded in whole cell configuration from a population of cells. The cells were lifted, triturated, and resuspended at 800,000 cells/ml. The cells were allowed to recover in the cell hotel prior to experimentation. Currents were recorded at room temperature. The external solution contained the following (in mM): NaCl 80, NMDG 60, KCl 4, MgCl2 1, CaCl2 6, glucose 5 and HEPES 10 (pH=7.4, Osmolarity˜300 mOsm). The extracellular solution was used as the wash, reference and compound delivery solution.
The compound plate was created at 2× concentrated in the extracellular solution. The compound was diluted to 1:2 when added to the recording well. The amount of DMSO in the extracellular solution was held constant at the level used for the highest tested concentration. For the voltage clamp experiments on Cav3.1, data were sampled at 10 KHz. After establishment of the seal and the passage in the whole cell configuration, the cells were held at −120 mV. Cav3.1 current was evoked using a 100 ms step to −20 mV (to measure resting state block), followed by a 1600 ms step to −65 mV and a second 100 ms step to −20 mV (to measure voltage dependent block). The voltage protocol was applied every 15 seconds in the absence and in the presence of the compounds under investigation. […] Current amplitude (pA) was measured in the peak 1 and 2. The average of last 3 sweeps of each liquid period (vehicle, compound under investigation, full block) was calculated. Nickel-sensitive current was used to calculate the % of inhibition in the presence of the compound under investigation.

[1] = Testing Conc 1.25, HEK-293 natClytin/TASK1+Cav3.1 cell line
[2] = voltage dependent block (VDB), HEK-293 natClytin/TASK1+Cav3.1 cell line, read-out: Cav3.1 IC50

T1 sequence (O43497 whole entry): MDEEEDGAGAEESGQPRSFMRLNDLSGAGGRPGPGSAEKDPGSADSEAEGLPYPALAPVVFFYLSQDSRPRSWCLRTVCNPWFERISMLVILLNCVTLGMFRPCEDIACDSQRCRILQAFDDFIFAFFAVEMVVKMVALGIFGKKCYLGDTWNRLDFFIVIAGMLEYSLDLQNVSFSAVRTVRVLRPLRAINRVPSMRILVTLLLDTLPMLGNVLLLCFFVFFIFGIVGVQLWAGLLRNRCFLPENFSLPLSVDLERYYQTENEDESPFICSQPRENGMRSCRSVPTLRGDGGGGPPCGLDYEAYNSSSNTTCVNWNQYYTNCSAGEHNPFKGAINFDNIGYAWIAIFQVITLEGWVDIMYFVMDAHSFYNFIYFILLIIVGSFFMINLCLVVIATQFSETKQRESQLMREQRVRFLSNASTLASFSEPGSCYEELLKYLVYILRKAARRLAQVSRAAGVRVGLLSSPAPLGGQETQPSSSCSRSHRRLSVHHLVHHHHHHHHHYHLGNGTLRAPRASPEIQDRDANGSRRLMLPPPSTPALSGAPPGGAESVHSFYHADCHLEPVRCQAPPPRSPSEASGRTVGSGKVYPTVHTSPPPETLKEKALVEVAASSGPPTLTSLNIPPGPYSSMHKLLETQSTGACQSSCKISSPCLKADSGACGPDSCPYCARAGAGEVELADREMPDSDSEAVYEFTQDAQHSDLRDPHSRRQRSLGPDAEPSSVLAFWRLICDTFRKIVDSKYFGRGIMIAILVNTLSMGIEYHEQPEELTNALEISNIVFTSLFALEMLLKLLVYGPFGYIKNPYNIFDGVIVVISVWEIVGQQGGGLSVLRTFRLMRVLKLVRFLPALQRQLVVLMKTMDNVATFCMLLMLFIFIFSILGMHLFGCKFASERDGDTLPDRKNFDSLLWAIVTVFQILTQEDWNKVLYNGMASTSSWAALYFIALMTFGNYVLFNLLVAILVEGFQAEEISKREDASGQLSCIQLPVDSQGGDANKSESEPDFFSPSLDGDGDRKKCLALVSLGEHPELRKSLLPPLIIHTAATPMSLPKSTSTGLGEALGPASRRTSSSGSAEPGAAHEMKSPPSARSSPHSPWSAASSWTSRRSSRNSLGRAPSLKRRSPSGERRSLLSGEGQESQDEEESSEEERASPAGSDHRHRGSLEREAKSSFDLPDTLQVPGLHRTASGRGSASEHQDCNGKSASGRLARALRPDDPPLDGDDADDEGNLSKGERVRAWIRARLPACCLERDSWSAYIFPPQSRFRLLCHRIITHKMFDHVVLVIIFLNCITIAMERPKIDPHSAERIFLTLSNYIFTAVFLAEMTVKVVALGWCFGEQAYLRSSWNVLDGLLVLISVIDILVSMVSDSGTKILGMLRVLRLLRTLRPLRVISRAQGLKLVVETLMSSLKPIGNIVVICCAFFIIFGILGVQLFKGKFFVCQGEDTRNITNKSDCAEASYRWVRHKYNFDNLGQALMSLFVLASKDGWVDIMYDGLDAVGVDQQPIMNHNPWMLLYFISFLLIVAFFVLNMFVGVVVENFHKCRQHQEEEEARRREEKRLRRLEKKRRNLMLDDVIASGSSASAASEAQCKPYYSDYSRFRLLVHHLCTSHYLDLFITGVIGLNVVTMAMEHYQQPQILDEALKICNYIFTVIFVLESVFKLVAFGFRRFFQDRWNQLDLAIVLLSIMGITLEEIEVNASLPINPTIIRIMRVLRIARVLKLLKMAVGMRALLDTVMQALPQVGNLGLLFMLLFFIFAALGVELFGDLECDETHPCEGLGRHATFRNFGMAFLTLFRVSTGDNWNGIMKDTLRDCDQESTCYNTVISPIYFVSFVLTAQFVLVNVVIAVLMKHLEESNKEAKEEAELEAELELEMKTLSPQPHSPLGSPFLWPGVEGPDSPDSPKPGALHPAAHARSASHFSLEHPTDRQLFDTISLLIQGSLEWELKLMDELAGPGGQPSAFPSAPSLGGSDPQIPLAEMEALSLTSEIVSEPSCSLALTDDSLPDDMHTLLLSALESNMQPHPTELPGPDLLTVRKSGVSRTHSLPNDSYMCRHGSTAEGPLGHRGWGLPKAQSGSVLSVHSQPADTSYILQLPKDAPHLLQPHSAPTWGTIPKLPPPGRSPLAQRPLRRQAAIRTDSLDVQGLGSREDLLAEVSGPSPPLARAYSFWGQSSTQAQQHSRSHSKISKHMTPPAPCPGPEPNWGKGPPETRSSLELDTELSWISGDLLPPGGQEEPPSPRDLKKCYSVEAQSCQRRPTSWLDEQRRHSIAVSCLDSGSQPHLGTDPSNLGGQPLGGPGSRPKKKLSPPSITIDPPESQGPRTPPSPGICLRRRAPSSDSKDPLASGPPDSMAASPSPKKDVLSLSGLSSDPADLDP

| Compound | % Inhibition (Single Point Data) [1] | IC50 | IC50 [2] | % Inhibition (Single Point Data) (Testing Conc 1, HEK-293 natClytin/TASK1+Cav3.1 cell line) |
| --- | --- | --- | --- | --- |
| CC(C)(C)CCN1C2CCC1CN(Cc1nc3c(Cl)cc(F)cc3[nH]1)C2 [Compound 77] | 100.45% | – | – | – |
| CC(C)(C)NC(=O)CN1C2CC1CN(Cc1nc3c(C#N)cc(F)cc3[nH]1)C2 [Compound 114] | 95.181% | < 78.2 nM | – | – |
| COc1cccc(NC(=O)CN2CC3CC2CN3CCNC(=O)C2(C(F)(F)F)CCC2)c1 (centres unmarked) [Compound 236] | 65.449% | – | 536 nM | – |
| CC(C)(C)OC(=O)CN1C2CC1CN(Cc1nc3c(Cl)cc(F)cc3[nH]1)C2 [Compound 139] | 92.564% | – | 153 nM | – |
| Fc1cc(Cl)c2nc(CN3CCN(CCC4CCCC4)CC3)[nH]c2c1 [Compound 71] | 94.005% | – | – | – |
| CC(C)(C)NC(=O)CN1C[C@@H]2C[C@H]1CN2CC(=O)NCC12CC3CC(CC(C3)C1)C2 [Compound 285] | 45.897% | – | 1270 nM | – |
| CC(C)(C)NC(=O)CN1C2CC1CN(CC(=O)NC13CCC(CC1)CC3)C2 [Compound 307] | 41.625% | – | 1010 nM | – |
| CC1(C)CCCC(=O)N1CCN1C2CC1CN(Cc1nc3c(Cl)cc(F)cc3[nH]1)C2 [Compound 103] | 96.655% | – | 109 nM | – |
| CC(C)(C)C(O)CN1C[C@@H]2C[C@H]1CN2CC(=O)NC12CC3CC(CC(C3)C1)C2 (some centres unmarked) [Compound 297] | 63.628% | – | 703 nM | – |
| Cc1cccc2[nH]c(CN3CC4CC(C3)N4CCC3CCC(F)(F)CC3)nc12 [Compound 157] | 79.835% | – | 297 nM | – |
| COc1cc(Cl)cc(NC(=O)CN2CC3CC(C2)N3CC(=O)NC(C)(C)C)c1 [Compound 284] | 103.09% | – | – | – |
| CC(C)(C)NC(=O)CN1CCC(=O)N(CC(=O)Nc2cc(F)cc(Cl)c2)CC1 [Compound 37] | – | – | – | 25.144% |
| CC(C)(NC(=O)CN1CC2CC(C1)N2Cc1nc2c(Cl)ccc(F)c2[nH]1)C(F)(F)F [Compound 127] | 52.415% | – | 992 nM | – |
| CC(C)(C)NC(=O)CN1C2CC1CN(CC(=O)Nc1cc(Cl)cc(Cl)c1)C2 [Compound 286] | 89.866% | – | 106 nM | – |
| CC(C)(C)NC(=O)CN1C2CC1CN(CC(=O)Nc1ccc(F)c(C(F)F)c1)C2 [Compound 250] | 86.981% | – | 377 nM | – |
| CC(C)(NC(=O)CN1CC2CC1CN2CC(=O)Nc1ccc(F)c(Cl)c1)C(F)(F)F (centres unmarked) [Compound 235] | 92.093% | – | 226 nM | – |
| CC(C)(C)NC(=O)CN1C[C@@H]2C[C@H]1CN2CC(=O)Nc1cc(Cl)cc(OC(F)F)c1 [Compound 294] | 101.56% | – | 58.7 nM | – |
| CC(C)(C)NC(=O)CN1C[C@@H]2CC[C@H]1CN2CC(=O)Nc1cc(F)cc(Cl)c1 [Compound 270] | 95.978% | – | – | – |
| Fc1cc(Cl)c2nc(CN3CC4CC(C3)N4CC(F)C3CCCCC3)[nH]c2c1 (centres unmarked) [Compound 169] | 84.629% | – | 297 nM | – |
| Cc1cccc2[nH]c(CN3CC4CC(C3)N4CCC3CCOCC3)nc12 [Compound 204] | 3.6634% | – | – | – |
| Fc1cc(Cl)c2nc(CN3CC4CC(C3)N4CC(F)(F)C3CCCCC3)[nH]c2c1 [Compound 167] | 79.996% | – | 381 nM | – |
| CC(C)(C)C(O)CN1C2CC1CN(CC(=O)NC13CC4CC(CC(C4)C1)C3)C2 (centres unmarked) [Compound 293] | 38.151% | – | 1680 nM | – |
